Earlier results as cited in US20060200870A1, “Methods of treating muscular dystrophy” (priority 2004, published 2006).
“Also recorded” adds a separate entry of the source.

Assays:
[1] = tested on: patients with DMD; conditions: 0.75 mg/kg in intermittent regimens
[2] = tested on: humans with DMD; conditions: humans (males) with DMD
[3] = tested on: mdx mice
[4] = tested on: derangements or deficiencies in AGAT activity; conditions: oral creatine

| SMILES | independent ambulation ([1]; some patients) | adverse side-effects ([1]; weight-gain, osteopenia, hirsutism, cushingoid facies, behavioral and endocrinology-related issues) | benefit / therapeutic effect of oral creatine supplementation [2] | benefit of oral creatine supplementation [3] | success in overcoming derangements or deficiencies in AGAT activity [4] |
| --- | --- | --- | --- | --- | --- |
| C[C@]12C=CC(=O)C=C1CC[C@@H]1[C@@H]2C(=O)C[C@@]2(C)[C@H]1CC[C@]2(O)C(=O)CO [prednisone] | can help prolong independent ambulation | significant adverse side-effects |  |  |  |
| CN(CC(=O)O)C(=N)N [creatine] |  |  | no such clear benefit; also recorded: has not been shown to have a significant therapeutic effect | some benefits | partially successful |
